Experimental data: ChEMBL document CHEMBL3758130, “Effect of Chicoric Acid on Mast Cell-Mediated Allergic Inflammation in Vitro and in Vivo” (J Nat Prod, 2015)
Active and inactive are the calls of the source. No cut-off for these calls is given here.

Columns and labels:
[1] = Cytotoxicity against HMC1 cells at 6.25 to 50 uM after 24 hrs by MTT assay; format: cell-based; details: human, hmc1, 24 h
[2] = Effect on Akt level in HMC1 cells at 12.5 to 50 uM pretreated for 30 mins followed by addition of PMACI incubated for 5 mins by Western blot analysis; format: ADME, cell-based; details: human, hmc1, 5 min
[3] = Effect on IKKalpha/beta level in HMC1 cells at 12.5 to 50 uM pretreated for 30 mins followed by addition of PMACI incubated for 15 mins by Western blot analysis; format: ADME, cell-based; details: human, hmc1, 0.25 h
[4] = Effect on ERK level in HMC1 cells at 12.5 to 50 uM pretreated for 30 mins followed by addition of PMACI incubated for 15 mins by Western blot analysis; format: cell-based; details: human, hmc1, 0.25 h
[5] = Effect on JNK level in HMC1 cells at 12.5 to 50 uM pretreated for 30 mins followed by addition of PMACI incubated for 15 mins by Western blot analysis; format: cell-based; details: human, hmc1, 0.25 h
[6] = Effect on p38 level in HMC1 cells at 12.5 to 50 uM pretreated for 30 mins followed by addition of PMACI incubated for 15 mins by Western blot analysis; format: ADME, cell-based; details: human, hmc1, 0.25 h
Mus musculus [7] = experiment: Antiinflammatory activity in ICR male mouse assessed as reduction in compound 48/80-induced mortality rate at 20 mg/kg, ip dosed 1 hr prior to anaphylactic shock measured for 1 hr
HMC1 [8] = experiment: Inhibition of PMACI-induced phosphorylation of ERK in HMC1 cells at 12.5 to 50 uM pretreated for 30 mins followed by addition of PMACI incubated for 15 mins by Western blot analysis; details: Homo sapiens
[9] = target: c-Jun N-terminal kinase, JNK (Homo sapiens) (UniProt P45983+P53779+P45984); experiment: Inhibition of PMACI-induced phosphorylation of JNK in HMC1 cells at 12.5 to 50 uM pretreated for 30 mins followed by addition of PMACI incubated for 15 mins by Western blot analysis
[10] = target: MAP kinase p38 (Homo sapiens) (UniProt O15264+Q15759+Q16539+P53778); experiment: Inhibition of PMACI-induced phosphorylation of p38 in HMC1 cells at 12.5 to 50 uM pretreated for 30 mins followed by addition of PMACI incubated for 15 mins by Western blot analysis
[11] = target: T1, NF-kappa-B inhibitor alpha (Homo sapiens) (UniProt P25963); experiment: Inhibition of PMACI-induced degradation of IkappaB-alpha in HMC1 cells at 12.5 to 50 uM pretreated for 30 mins followed by addition of PMACI incubated for 15 mins by Western blot analysis
T1 sequence (whole entry): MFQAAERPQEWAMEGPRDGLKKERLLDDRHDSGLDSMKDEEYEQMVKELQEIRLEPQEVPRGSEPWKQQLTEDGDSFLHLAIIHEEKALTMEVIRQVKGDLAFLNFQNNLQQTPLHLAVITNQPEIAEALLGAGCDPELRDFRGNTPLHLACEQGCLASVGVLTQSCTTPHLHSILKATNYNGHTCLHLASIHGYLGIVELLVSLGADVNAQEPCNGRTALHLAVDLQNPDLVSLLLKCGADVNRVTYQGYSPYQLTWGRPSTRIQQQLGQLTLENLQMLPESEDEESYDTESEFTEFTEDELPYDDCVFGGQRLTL

Mus musculus [12] = experiment: Antiinflammatory activity in ICR male mouse assessed as reduction in compound 48/80-induced serum histamine level at 20 mg/kg, ip dosed 1 hr prior to anaphylactic shock by enzymeimmunoassay
[13] = target: RAC-alpha serine/threonine-protein kinase (Homo sapiens) (UniProt P31749); experiment: Inhibition of PMACI-induced phosphorylation of Akt at […] in HMC1 cells at 12.5 to 50 uM pretreated for 30 mins followed by addition of PMACI incubated for 5 mins by Western blot analysis
Sequence of RAC-alpha serine/threonine-protein kinase (Homo sapiens) (P31749 whole entry): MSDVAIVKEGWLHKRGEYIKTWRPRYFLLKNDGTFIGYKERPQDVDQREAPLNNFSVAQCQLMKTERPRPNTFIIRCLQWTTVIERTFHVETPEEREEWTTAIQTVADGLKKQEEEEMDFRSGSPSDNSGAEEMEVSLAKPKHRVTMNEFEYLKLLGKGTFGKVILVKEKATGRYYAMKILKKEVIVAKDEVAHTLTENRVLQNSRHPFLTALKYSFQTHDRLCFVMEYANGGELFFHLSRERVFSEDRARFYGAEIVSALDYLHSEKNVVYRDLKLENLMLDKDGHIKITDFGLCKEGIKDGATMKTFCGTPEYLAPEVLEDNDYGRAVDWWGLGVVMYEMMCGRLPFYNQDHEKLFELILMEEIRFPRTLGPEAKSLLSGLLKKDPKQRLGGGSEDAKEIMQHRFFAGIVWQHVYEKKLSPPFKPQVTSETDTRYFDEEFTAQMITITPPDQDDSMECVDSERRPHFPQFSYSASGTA

[14] = target: Inhibitor of NF-kappa-B kinase alpha/beta (Homo sapiens) (UniProt O14920+O15111); experiment: Inhibition of PMACI-induced phosphorylation of IKKalpha/beta in HMC1 cells at 12.5 to 50 uM pretreated for 30 mins followed by addition of PMACI incubated for 15 mins by Western blot analysis
[15] = target: T1, NF-kappa-B inhibitor alpha (Homo sapiens); experiment: Inhibition of PMACI-induced phosphorylation of IkappaB-alpha in HMC1 cells at 12.5 to 50 uM pretreated for 30 mins followed by addition of PMACI incubated for 15 mins by Western blot analysis
HMC1 [16] = experiment: Antiinflammatory activity in HMC1 cells assessed as suppression of PMACI-induced IL-6 production pretreated for 30 mins followed by addition of PMACI incubated for 24 hrs by enzyme immunoassay; details: Homo sapiens
HMC1 [17] = experiment: Antiinflammatory activity in HMC1 cells assessed as suppression of pro-caspase-1 degradation pretreated for 30 mins followed by addition of PMACI incubated for 15 mins by Western blot analysis; details: Homo sapiens
HMC1 [18] = experiment: Antiinflammatory activity in HMC1 cells assessed as suppression of PMACI-induced IL-6 mRNA expression pretreated for 30 mins followed by addition of PMACI incubated for 6 hrs by qRT-PCR analysis; details: Homo sapiens
HMC1 [19] = experiment: Antiinflammatory activity in HMC1 cells assessed as suppression of PMACI-induced IL-1beta production pretreated for 30 mins followed by addition of PMACI incubated for 24 hrs by enzyme immunoassay; details: Homo sapiens
HMC1 [20] = experiment: Antiinflammatory activity in HMC1 cells assessed as suppression of PMACI-induced TNF-alpha production pretreated for 30 mins followed by addition of PMACI incubated for 24 hrs by enzyme immunoassay; details: Homo sapiens
HMC1 [21] = experiment: Antiinflammatory activity in HMC1 cells assessed as suppression of PMACI-induced IL-1beta mRNA expression pretreated for 30 mins followed by addition of PMACI incubated for 6 hrs by qRT-PCR analysis; details: Homo sapiens
HMC1 [22] = experiment: Antiinflammatory activity in HMC1 cells assessed as suppression of PMACI-induced TNF-alpha mRNA expression pretreated for 30 mins followed by addition of PMACI incubated for 6 hrs by qRT-PCR analysis; details: Homo sapiens

inhibition [9]: inactive | inhibition [10]: inactive | inhibition [11]: Active | inhibition [13]: Active | inhibition [14]: Active | inhibition [15]: Active
SMILES: O=C(/C=C/c1ccc(O)c(O)c1)O[C@@H](C(=O)O)[C@@H](OC(=O)/C=C/c1ccc(O)c(O)c1)C(=O)O [CICHORIC ACID]
Activity [1]: Non-toxic | Activity [2]: Non-toxic | Activity [3]: Non-toxic | Activity [4]: Non-toxic | Activity [5]: Non-toxic | Activity [6]: Non-toxic | Activity (Mus musculus [7]): Active | inhibition (HMC1 [8]): inactive | Activity (Mus musculus [12]): Active | Activity (HMC1 [16]): Dose-dependent effect | Activity (HMC1 [17]): Active | Activity (HMC1 [18]): Dose-dependent effect | Activity (HMC1 [19]): Dose-dependent effect | Activity (HMC1 [20]): Dose-dependent effect | Activity (HMC1 [21]): Dose-dependent effect | Activity (HMC1 [22]): Dose-dependent effect
